These results are taken from PMC4961458 (eLife, 2016).

Experiment [1] has as its target AR (Homo sapiens, UniProt P10275). In words: AR competitive radioligand binding assay (MDA-MB-453 cell lysate). The settings on record: 0.6 nM 3H-R1881. As for the experimental part: After reaching 90% confluence, cells were harvested, resuspended in TEGM (10 mM TrisHCl pH 7.2, 1 mM EDTA, 10% glycerol, 1 mM β-mercaptoethanol, 10 mM Sodium Molybdate), and frozen in liquid nitrogen in 10 mL aliquots containing 2 × 10^7 cells/mL. […] Reactions were incubated at 4°C overnight. Bound and unbound ligands were separated by ultrafiltration using a Unifilter-96 GF/C filter plate (Perkin Elmer). Bound ^3H-R1881 was eluted in 30 μL/well Microscint-20 and quantified using a scintillation counter (Top Count).

For experiment [2], the target named is ERα (Homo sapiens, UniProt P03372). The experiment can be described thus: MCF7 ERα In-Cell Western assay. The settings on record: MCF7, 4 hr.
Chain of ERα (P03372 whole entry): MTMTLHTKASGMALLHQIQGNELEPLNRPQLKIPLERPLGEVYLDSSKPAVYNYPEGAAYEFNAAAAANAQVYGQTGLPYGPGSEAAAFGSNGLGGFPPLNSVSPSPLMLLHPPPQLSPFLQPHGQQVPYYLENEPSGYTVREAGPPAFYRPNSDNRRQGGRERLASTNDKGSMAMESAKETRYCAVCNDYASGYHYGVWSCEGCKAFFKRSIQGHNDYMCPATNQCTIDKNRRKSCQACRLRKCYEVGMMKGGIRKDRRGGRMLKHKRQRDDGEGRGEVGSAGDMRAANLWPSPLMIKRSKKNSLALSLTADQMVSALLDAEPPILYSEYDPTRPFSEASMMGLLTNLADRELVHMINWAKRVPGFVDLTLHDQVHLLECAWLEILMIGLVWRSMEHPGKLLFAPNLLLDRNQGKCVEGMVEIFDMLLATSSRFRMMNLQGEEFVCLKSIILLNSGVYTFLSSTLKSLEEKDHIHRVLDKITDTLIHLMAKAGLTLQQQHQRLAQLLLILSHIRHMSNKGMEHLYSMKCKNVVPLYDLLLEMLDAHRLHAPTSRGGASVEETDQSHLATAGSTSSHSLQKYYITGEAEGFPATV
Experiment [3] deals with ZR75-1 ER+ breast cancer tumors. The experiment can be described thus: ZR-75-1 xenograft efficacy. As to conditions: GDC-0810 100 mg/kg/day p.o., 28 days, 0.72 mg E2 pellets. It counts as in vivo, mice.
For experiment [4], the target named is T1, GR (Homo sapiens, UniProt P04150).
T1 sequence (P04150 1-777): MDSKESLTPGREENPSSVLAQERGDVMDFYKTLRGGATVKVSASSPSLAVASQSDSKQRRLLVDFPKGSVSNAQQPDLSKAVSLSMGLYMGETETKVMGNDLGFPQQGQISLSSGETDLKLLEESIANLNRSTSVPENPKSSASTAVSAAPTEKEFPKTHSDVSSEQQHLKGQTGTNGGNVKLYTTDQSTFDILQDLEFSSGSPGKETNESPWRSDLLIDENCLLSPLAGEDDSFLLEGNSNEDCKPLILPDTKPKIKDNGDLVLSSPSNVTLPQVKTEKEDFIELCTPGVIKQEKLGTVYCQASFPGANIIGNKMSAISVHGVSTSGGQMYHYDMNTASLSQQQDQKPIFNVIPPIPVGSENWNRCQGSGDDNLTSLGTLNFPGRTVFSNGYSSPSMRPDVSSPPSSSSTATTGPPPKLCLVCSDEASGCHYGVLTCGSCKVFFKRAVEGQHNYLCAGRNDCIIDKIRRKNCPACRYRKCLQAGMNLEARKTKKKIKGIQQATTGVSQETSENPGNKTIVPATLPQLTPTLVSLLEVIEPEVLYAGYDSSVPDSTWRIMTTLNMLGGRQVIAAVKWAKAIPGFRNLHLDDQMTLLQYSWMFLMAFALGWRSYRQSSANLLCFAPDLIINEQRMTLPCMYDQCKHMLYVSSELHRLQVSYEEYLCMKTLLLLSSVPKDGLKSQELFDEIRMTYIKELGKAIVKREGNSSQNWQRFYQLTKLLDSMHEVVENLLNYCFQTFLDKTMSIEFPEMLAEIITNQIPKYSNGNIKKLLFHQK
The experiment can be described thus: GR transcriptional reporter assay, antagonist mode (CV1 cells). It counts as cell-based. The method, then: CV1 cells were maintained in MEM supplemented with 10% FBS. Transcriptional assays were performed by seeding 12 mL of cells at a density of 250,000 cells/mL into a T-75 cell culture flask in MEM supplemented with 5% charcoal-stripped serum and allowed to attach overnight. Cells were transiently transfected using FuGENE 6 (Roche Applied Science). […] Transfected cells were incubated overnight then split into four 96-well tissue culture plates and incubated for 4 hr followed by compound addition. […] The final agonist concentration used in the antagonist assays was 10 nM.
For orientation: In a reporter assay the amount or activity of a reporter protein is the signal.

The structures appear in SMILES notation.

Chain of AR (P10275 whole entry): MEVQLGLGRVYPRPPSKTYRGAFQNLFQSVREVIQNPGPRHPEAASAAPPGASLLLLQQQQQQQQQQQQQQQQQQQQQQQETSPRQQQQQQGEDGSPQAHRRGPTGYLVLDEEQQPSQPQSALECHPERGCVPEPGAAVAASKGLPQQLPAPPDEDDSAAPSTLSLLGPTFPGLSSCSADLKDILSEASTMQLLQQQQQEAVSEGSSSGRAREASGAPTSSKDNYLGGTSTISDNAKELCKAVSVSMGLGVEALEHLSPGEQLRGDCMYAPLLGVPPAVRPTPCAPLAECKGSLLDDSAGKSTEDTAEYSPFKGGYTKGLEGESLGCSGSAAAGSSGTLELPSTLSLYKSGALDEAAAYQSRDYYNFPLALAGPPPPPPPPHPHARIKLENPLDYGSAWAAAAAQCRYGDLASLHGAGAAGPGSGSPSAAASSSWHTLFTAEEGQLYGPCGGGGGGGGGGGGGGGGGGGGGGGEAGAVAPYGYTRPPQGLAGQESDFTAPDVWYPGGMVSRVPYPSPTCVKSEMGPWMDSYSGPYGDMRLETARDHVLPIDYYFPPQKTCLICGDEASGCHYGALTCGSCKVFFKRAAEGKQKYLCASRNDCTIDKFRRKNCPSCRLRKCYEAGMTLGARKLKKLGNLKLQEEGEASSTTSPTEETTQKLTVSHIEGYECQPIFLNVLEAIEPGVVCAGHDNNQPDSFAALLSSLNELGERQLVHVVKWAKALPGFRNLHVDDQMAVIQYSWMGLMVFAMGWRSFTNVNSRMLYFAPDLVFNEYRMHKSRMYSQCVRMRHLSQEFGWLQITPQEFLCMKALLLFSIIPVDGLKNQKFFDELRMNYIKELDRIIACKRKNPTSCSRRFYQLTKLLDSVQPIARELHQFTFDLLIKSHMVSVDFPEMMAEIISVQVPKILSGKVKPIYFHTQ

Usually IC50 stands for the point on the concentration scale where inhibition reaches its midpoint. Higher therefore signals weaker potency in that assay. Turning to `C[C@]12CC[C@@H]3c4ccc(O)cc4C[C@@H](CCCCCCCCC[S+]([O-])CCCC(F)(F)C(F)(F)F)[C@H]3[C@@H]1CC[C@@H]2O` (stereo partly shown) [Fulvestrant], in experiment [1], the IC50 is above 4000 nM. In addition, in experiment [2], the “ERα degradation In-Cell Western Emax” value came out at 6.4 ± 2.0 % Veh.

Turning to `CC/C(=C(/c1ccc(/C=C/C(=O)O)cc1)c1ccc2[nH]ncc2c1)c1ccc(F)cc1Cl` [GDC-0810], in experiment [3], the “Tumor growth response, ZR75-1 xenograft” value was “displayed anti-tumor activity”.

In experiment [4], `CC/C(=C(\c1ccc(O)cc1)c1ccc(OCCN(C)C)cc1)c1ccccc1` [4-OH Tam, 4-hydroxytamoxifen] had an IC50 of 1470 ± 1180 nM.
